Measurements published in patent US20070136828A1, “Methods of using molecules related to organic cation transporter 3 (oct3) for treating depression, anxiety neuroses, drug dependencies, and other similar mental disorders” (Biostation Inc., priority 2004, published 2007).
Where two headings read alike, the source gives them in different places.

Legend:
[1] = biological target: T1, kidney derived Caki-1 cells, which contain OCT3 (Homo sapiens, UniProt O75751); conditions: cited from earlier work
T1 construct: kidney derived Caki-1 cells, which contain OCT3; endogenous in cells; host or cells: Caki-1
T1 sequence (O75751 1-556): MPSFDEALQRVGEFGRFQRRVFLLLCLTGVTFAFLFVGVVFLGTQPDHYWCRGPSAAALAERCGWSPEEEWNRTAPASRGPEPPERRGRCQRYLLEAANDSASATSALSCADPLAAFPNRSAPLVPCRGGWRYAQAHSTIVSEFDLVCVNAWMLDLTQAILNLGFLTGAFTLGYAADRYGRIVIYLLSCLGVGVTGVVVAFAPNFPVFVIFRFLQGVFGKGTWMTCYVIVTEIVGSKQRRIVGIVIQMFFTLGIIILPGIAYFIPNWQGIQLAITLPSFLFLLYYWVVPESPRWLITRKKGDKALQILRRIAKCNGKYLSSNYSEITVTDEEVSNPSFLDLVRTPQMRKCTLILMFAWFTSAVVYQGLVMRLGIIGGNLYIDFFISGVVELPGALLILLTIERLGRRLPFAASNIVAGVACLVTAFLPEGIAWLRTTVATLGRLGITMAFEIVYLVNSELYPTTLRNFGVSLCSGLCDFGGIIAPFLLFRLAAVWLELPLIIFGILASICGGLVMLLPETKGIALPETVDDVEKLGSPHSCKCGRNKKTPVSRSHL

OCT3/uptake2 = biological target: T2, OCT3/uptake2 (Homo sapiens, UniProt O75751); conditions: cited from earlier work
T2 sequence (O75751 1-556): T1 sequence (O75751 1-556)

other OCT subtypes = conditions: cited from earlier work
[2] = tested on: cultured porcine tubular cells; conditions: cited from earlier work
[3] = intravenous administration; cited from earlier work
Male ddY mice [4] = conditions: anti-depressant administration: chlordiazepoxide 100 mg/kg, imipramine 16 mg/kg; Behav Brain Res. 73, 43-46, 1996; cited from earlier work
Male ddY mice [5] = experiment: Forced swimming test (depression model); type: in vivo
Method: Male ddY mice were used for the experiments. Mice raised for three or more days after purchase were made to swim for 300 seconds in a beaker (15 cm in diameter, 20 cm in height). Immobility time was measured, and the mice were divided into groups such that the average immobility time was approximately the same for each group. The day after swimming an antisense (OCT3 antisense) constructed from an OCT3 gene sequence was continuously infused into the cerebral ventricle, using an osmotic pump according to the reported literature (J. Chem. Neuroanat. 2000. 20: 375-87). Further, a group infused with Ringer's solution, which is an antisense solvent (the solvent group) and a group infused with a cDNA sequence with the same bases as the antisense but in a random sequence without homology to known genes (the scrambled OCT3 antisense group) were also prepared. One week after infusion the mice were returned to the beakers and made to swim for 300 seconds, and immobility time was measured. Imipramine anti-depressant was intraperitoneally administered 30 minutes before the beginning of the test.

## C[C@]12C[C@H](O)[C@H]3[C@@H](CCC4=CC(=O)CC[C@@]43C)[C@@H]1CC[C@@H]2C(=O)CO [Corticosterone, corticosterone]
[1]
  uptake of MPP+: suppresses

## CCN1/C(=C/c2ccc3ccccc3[n+]2CC)C=Cc2ccccc21.[I-] [decynium 22]
OCT3/uptake2
  inhibition of OCT3/uptake2: potent OCT3 inhibitors
Other OCT subtypes
  inhibitory activity towards other OCT subtypes: potent inhibitory activity

## CCN1C(=Cc2cc(C)nc(-c3ccccc3)[n+]2C)C=Cc2ccccc21.[Cl-] [cyanine 863]
OCT3/uptake2
  inhibition of OCT3/uptake2: potent OCT3 inhibitors
Other OCT subtypes
  inhibitory activity towards other OCT subtypes: potent inhibitory activity

## CC(=O)[C@H]1CC[C@H]2[C@@H]3CCC4=CC(=O)CC[C@]4(C)[C@H]3CC[C@]12C [progesterone]
[2]
  noradrenaline uptake: significantly reduce

## CC(C)N1C=CC(=Cc2ccc3ccccc3[n+]2C(C)C)c2ccccc21 [disprocynium24, 1,1′-diisopropyl-2,4′-cyanine]
[3]
  excretion of monoamine into urine: strongly suppresses
OCT3/uptake2
  inhibition of OCT3/uptake2: potent inhibitor
OCT3/uptake2; listed as disprocynium 24
  inhibition of OCT3/uptake2: potent OCT3 inhibitors
Other OCT subtypes
  inhibitory activity towards other OCT subtypes: potent inhibitory activity

## CN(C)CCCN1c2ccccc2CCc2ccccc21 [imipramine]
Male ddY mice [4]
  condition of immobility: shortened
Male ddY mice [5]; imipramine 4 mg/kg intraperitoneally 30 minutes before test, 300 seconds of swimming, FIG. 1B
  immobility time (average value): 245 ± 15 s

## COc1cc(C(O)CN)ccc1O (stereo not shown) [normetanephrine]
Male ddY mice [5]; normetanephrine 2.5 μg/0.25 μl/hr continuous infusion to cerebral ventricle, one week, FIG. 2
  immobility time (average value): 108 ± 29 s
